The values that follow come from patent US20060100291A1, “Antibacterial compounds” (priority 2001, published 2006).

Series [1] relates to Bacillus subtilis (ATCC strain 19659). Briefly: Disc diffusion assay. In kind it is cell-based. The conditions noted are these: for BS activity: width of zone of growth inhibition / zone of inhibition at 60 µg/disc: disc assay dosed at 60 μg/disc, 24 h; for zone of inhibition at 60 µg/disc: read-out: BS activity: width of zone of growth inhibition. Here is the method: The compounds of Examples 1 to 7 were also tested against another Gram-positive bacterium, Bacillus subtilis (ATCC strain 19659), in disc diffusion assays. […] The positive control in this assay was the clinically proven antimicrobial agent chloramphenicol (30 μg/disc), which gave a 12 mm zone.
A general note: Agar diffusion results depend on both activity and mobility in agar.

Series [2] has as its system Methicillin Resistant Staphylococcus aureus (MRSA) (strain 1126). Briefly: MIC in Mueller Hinton broth, serial doubling dilutions. The class given is cell-based. The procedure:
Minimum inhibitory concentrations [MIC] were tested in Mueller Hinton [MH] broth. The human pathogen Methicillin Resistant Staphylococcus aureus (MRSA) (strain 1126) was provided by the University of Otago. Glass vials (30 mL) containing MH broth (10 mL) were inoculated from an actively growing culture and incubated overnight at 37° C. A standardized procedure to suspend each compound in MH broth was used. Each compound (5 mg) was dissolved in ethanol (1 mL). MH broth (9 mL) was then added to the ethanol containing the compound, resulting in stock solution concentrations of 500 μg /mL.
The MIC for each compound was determined by carrying out 3 replicate serial dilutions in Nunc® 48 well microtiter plates. To test the MICs, each compound stock solution was vigorously mixed before I mL was dispensed aseptically by pipette into 3 of the 6 first wells of a microtiter plate. MH broth (0.5 mL) was dispensed into all wells of the microtiter plate except the first row. Serial doubling dilutions were carried out through 12 wells (1½ microtiter plates). Mixing was carried out by repeated pipetting of 100 μL amounts. 500 μL was discarded from the last wells to conserve the […] compound concentration. Each well was inoculated with an aliquot (25 μL) of MRSA suspension diluted by 10^−2. All test and control microtiter plates were incubated at 37° C. and read after 48 h and 72 h.

For series [3] the following is noted: background statement, organism not given; cited from earlier work.
In series [4] the test system is listera monocytogenes. Briefly: MIC against Listeria, by similar methods. The class given is cell-based.
The test system of series [5] is Enterococcus faecalis 8A-25 Vancomycin resistant (VRE, vanA). Briefly: Broth microdilution MIC (THB). The settings on record: E. faecalis 8A-25 vancomycin resistant (VRE, vanA), three experiments. In kind it is cell-based. The procedure:
(§1) Minimum inhibitory concentrations (MICs) were determined using a broth microdilution method. Bacterial isolates were inoculated into Todd-Hewitt broth (THB) and incubated at 37 C with shaking (200 rpm) for 18 h. Overnight cultures were diluted to an OD of 0.01 (at […], 1 cm light path) to give a final inoculum for broth microdilution of OD 0.005. Doubling dilutions of the test compounds were prepared in THB in microtitre plates. Tween 80 (Sigma) was added at a final concentration of 14 % to enhance solubility. The range of concentrations tested (with doubling dilutions) was 16 μg/mL to 0.063 μg/mL. Microtitre plates were incubated at 37 ° C. for 18 h with gentle shaking. Plates were read using a microplate reader (Multiskan Ascent, Labsystems), measuring the OD at 595 nm. Minimum bactericidal concentrations (MBCs) were determined by placing 5 μL of culture from wells without growth onto THB plates and incubating at 37° C. for 18 h. The MBC was the lowest concentration without growth from the drop of culture.
In general terms: Broth dilution looks for growth in wells or tubes with falling amounts of substance.

Series [6] deals with Enterococcus faecalis ATCC29212 Wild-type (fully susceptible). Briefly: Broth microdilution MIC (THB). The settings on record: three experiments. In kind it is cell-based. Here is the method: as §1
In series [7] the test system is S. aureus PC-3 Vancomycin/Oxacillin resistant (GISA). Briefly: Broth microdilution MIC (THB). In kind it is cell-based. The settings on record: Staphylococcus aureus, three experiments. The procedure:
as §1

For series [8], the system named is S. aureus OUM1127 Erythromycin resistant. Briefly: Broth microdilution MIC (THB). The conditions noted are these: Staphylococcus aureus, three experiments. In kind it is cell-based. Here is the method: as §1
Series [9] concerns S. aureus ATCC25923 Wild-type (fully susceptible). The series is described as follows: Broth microdilution MIC (THB). The settings on record: three experiments. In kind it is cell-based. The procedure: as §1
The test system of series [10] is Enterococcus faecalis CD2-49 Gentamicin resistant. Briefly: Broth microdilution MIC (THB). In kind it is cell-based. The conditions noted are these: E. faecalis CD2-49 gentamicin resistant, three experiments. Here is the method: as §1
The test system of series [11] is E. faecium AR99/118 Ampicillin resistant. Briefly: Broth microdilution MIC (THB). In kind it is cell-based. The settings on record: Enterococcus faecium, three experiments. The procedure:
as §1

For series [12], the system named is S. aureus OUM1126 Oxacillin resistant (MRSA). The series is described as follows: Broth microdilution MIC (THB). The class given is cell-based. The settings on record: Staphylococcus aureus, three experiments. The procedure: as §1
Series [13] concerns S. aureus AS92/349 Mupirocin resistant. The series is described as follows: Broth microdilution MIC (THB). In kind it is cell-based. The conditions noted are these: three experiments. Here is the method:
as §1

Series [14] relates to S. aureus ST94/1208 Oxacillin/Gentamicin resistant (cMRSA). The series is described as follows: Broth microdilution MIC (THB). The class given is cell-based. The conditions noted are these: Staphylococcus aureus, three experiments. Here is the method: as §1
The subject of series [15] is Swiss male mice (Mus musculus). The series is described as follows: Acute toxicity in mice, intraperitoneal injection. The class given is in vivo. The settings on record: for acute toxic effects: ip in cottonseed oil, up to 400 mg/kg, observed 6 h plus 18 h. The procedure: Compound I has been tested in mice for acute toxicity.
A single trial was completed using twenty-five Swiss male mice (Mus musculus), weighing 20 g±2 g. Mice were selected by gender and weight, individually identified and randomly placed in 5 cages of 5 mice each. Mice were injected intraperitoneally with one of five levels of antibiotic [0 (control), 1, 2, 4 and 8 mg/ml]. Cottonseed oil was used as a carrier solution for the test substance. One mL samples were mixed before being injected using 1.0 ml syringes and 21G needles. Mice were observed continuously for 6 hours and any deaths or adverse symptoms recorded. This initial hour observation period was subsequently followed by another 18-hour monitoring period. […] This was also the case for mice injected solely with cottonseed oil. This is in direct contrast to weekly calibration assays using the toxic control saxitoxin dihydrochloride.

For series [16], the system named is Enterococcus and S. aureus strains tested in Table 2. The series is described as follows: Bacteriostatic/bactericidal concentrations (MIC/MBC) over the strains of Table 2. The class given is cell-based. The conditions noted are these: all strains of Table 2; read-out: Bacteriocidal concentration (MBC). Here is the method:
as §1

[17] abbreviates: MH broth, 37° C., read after 48 h and 72 h, University of Otago strain 1126, read-out: MRSA activity: upper and lower limits of Minimum Inhibitory Concentration.

Values after ≈ are worked out from the molar mass of the structure shown. “Also recorded” adds a separate entry of the source. Where two headings read alike, the source gives them in different places. Where only a bound is given, the exact number is not on record here.

Consider `CCCCCCCCCC(=O)C1=C(O)C(C)(C)C(=O)C(C)(C)C1=O` [Example 2, 5-hydroxy-4-(1-oxodecyl)-2,2,6,6,-tetramethyl-4-cyclohexene-1,3-dione], for which the “BS activity: width of zone of growth inhibition” value in series [1] is given as 7 mm.
`CCCCCCCCCCCCCCCC(=O)C1=C(O)C(C)(C)C(=O)C(C)(C)C1=O` [Example 3, 5-hydroxy-4(1-oxohexadecyl)-2,2,6,6-tetramethyl-4-cyclohexene-1,3-dione]: the melting point (usually the temperature of the solid-liquid transition) stood at 39 °C. Besides, the zone of inhibition (in general, the size of the clear area around the sample on an inoculated plate) at 60 µg/disc in [1] (Bacillus subtilis, ATCC19659) amounted to 0 mm. In addition, in series [2] (setting [17]), the MIC lay within 2 to 7.8 µg/mL (≈ 4.75 to 18.5 µM).
Regarding “5-hydroxy-4-(1-oxopropylcyclohexl)-2,6,6-tetramethyl-4-cyclohexene-1,3-dione [Example 5]”, the “BS activity: width of zone of growth inhibition” value in series [1] came out at 12 mm.
As for `CCCCCCCCCCCC(=O)C1=C(O)C(C)(C)C(=O)C(C)(CC=C(C)C)C1=O` (centres unmarked) [Example 7, 5-hydroxy-4-(1-oxododecyl)-2-prenyl-2,6,6trimethyl-4-cyclohexene-1,3-dione], the zone of inhibition at 60 µg/disc in [1] (Bacillus subtilis, ATCC19659) stood at 0 mm. Moreover, the MIC in series [2] (setting [17]) lay within 1 to 2 µg/mL (≈ 2.39 to 4.78 µM).
As for `CN[C@H](CC(C)C)C(=O)N[C@H]1C(=O)N[C@@H](CC(N)=O)C(=O)N[C@H]2C(=O)N[C@H]3C(=O)N[C@H](C(=O)N[C@H](C(=O)O)c4cc(O)cc(O)c4-c4cc3ccc4O)[C@H](O)c3ccc(c(Cl)c3)Oc3cc2cc(c3O[C@@H]2O[C@H](CO)[C@@H](O)[C@H](O)[C@H]2O[C@H]2C[C@](C)(N)[C@H](O)[C@H](C)O2)Oc2ccc(cc2Cl)[C@H]1O` [vancomycin, reference compound], the MIC entry in series [3] is “approximately 2 μg/ml”; in [2] (read-out: MRSA activity: upper and lower limits of Minimum Inhibitory Concentration), 1.6 to 3.1 µg/mL (≈ 1.1 to 2.14 µM).
Take `CCCCCCCCCCCC(=O)C1=C(O)C(CC)(CC)C(=O)C(CC)(CC)C1=O` [Example 6]: in series [1], the “BS activity: width of zone of growth inhibition” value is reported as 0 mm.
The molecule `CC1(C)C(=O)C(C2(C=O)CCCCC2)=C(O)C(C)(C)C1=O` [Example 4, 5-hydroxy-4(1-oxomethylcyclohexyl)-2,2,6,6-tetramethyl-4-cyclohexene-1,3dione] showed a melting point of 47.8 °C. Further, the zone of inhibition at 60 µg/disc in series [1] (Bacillus subtilis, ATCC19659) stood at 0 mm. Further, the MIC in [2] (setting [17]) is 15.6 to 62.5 µg/mL (≈ 53.4 to 214 µM).
With `O=C(N[C@H](CO)[C@H](O)c1ccc([N+](=O)[O-])cc1)C(Cl)Cl` [chloramphenicol, reference compound], the zone of inhibition at 30 µg/disc in series [1] (Bacillus subtilis, ATCC19659, positive control, 30 μg/disc, read-out: width of zone of inhibition) is 12 mm.
For `CCCCCCCCCCCC(=O)C1=C(O)C(C)(C)C(=O)C(C)(C)C1=O` [Example 1, 5-hydroxy-4-(1-oxododecyl)-2,2,6,6-tetramethyl-4-cyclohexene-1,3-dione], the zone of inhibition at 60 µg/disc in series [1] (Bacillus subtilis, ATCC19659) turned out to be 3 mm. The MIC in [4] is < 3.9 µg/mL; in [5], 1 µg/mL (≈ 2.74 µM); in [6] (E. faecalis ATCC29212 wild-type), 0.5 µg/mL (≈ 1.37 µM); in series [6] (Enterococcus faecalis, ATCC29212, E. faecalis ATCC29212 wild-type, read-out: MIC), 1 µg/mL (≈ 2.74 µM); in [7] it was 2 µg/mL (≈ 5.49 µM); in series [8] it was 1 µg/mL (≈ 2.74 µM). Also, the MIC is 1 µg/mL (≈ 2.74 µM) in series [9] (S. aureus ATCC25923 wild-type); 2 µg/mL (≈ 5.49 µM) in series [9] (Staphylococcus aureus, ATCC25923, S. aureus ATCC25923 wild-type, read-out: MIC); 0.5 µg/mL (≈ 1.37 µM) in series [10]; 1 µg/mL (≈ 2.74 µM) in series [10] (Enterococcus faecalis, read-out: MIC); 2 µg/mL (≈ 5.49 µM) in [11]; 1 µg/mL (≈ 2.74 µM) in series [12]. In addition, the MIC is 1 µg/mL (≈ 2.74 µM) in series [13] (Staphylococcus aureus, read-out: MIC); 2 µg/mL (≈ 5.49 µM) in series [13]; 1 µg/mL (≈ 2.74 µM) in [14]; 0.5 to 1 µg/mL (≈ 1.37 to 2.74 µM) in [2] (setting [17]). In addition, the mouse deaths entry in series [15] (ip in cottonseed oil, 1, 2, 4 and 8 mg/ml, 1 mL) is “no mouse deaths were recorded”. For the same molecule, the acute toxic effects entry in series [15] (listed as Compound I) is on record as “no toxic effects; also recorded: no adverse toxic symptoms”; in series [15] (listed as Example I) it was “not toxic to mice”. For the same molecule, in [16], the MBC was ≥ 8 µg/mL.
